19 molecules from PubChem BioAssay AID248 (DTP/NCI, 2004) can be followed below.

For this experiment, the system named is L1210 leukemia ip in BDF1 mice, survival T/C. Briefly: NCI In Vivo Anticancer Drug Screen. Data for tumor model L1210 Leukemia (intraperitoneal) in B6D2F1 (BDF1) mice. To be noted: endpoint: mean survival time, higher = longer survival. The essentials:
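Antitumor effect is assessed in tumor-bearing animals. Survival in the compound arm is compared with a vehicle-dosed control arm and expressed as their quotient.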

The mark [1] stands for this setting: dose: 25.0 mg/kg/injection, schedule: Q01DX009 (ip), vehicle: saline with Tween-80.
Setting [2] is: dose: 100.0 mg/kg/injection, schedule: Q04DX003 (ip), vehicle: saline.
Setting [3] is: dose: 200.0 mg/kg/injection, schedule: Q04DX003 (ip), vehicle: saline.
Where [4] appears, read: dose: 400.0 mg/kg/injection, schedule: Q04DX003 (ip), vehicle: saline.
[5] abbreviates: dose: 50.0 mg/kg/injection, schedule: Q01DX009 (ip), vehicle: saline with Tween-80.
The mark [6] stands for this setting: dose: 100.0 mg/kg/injection, schedule: Q01DX009 (ip), vehicle: saline with Tween-80.
Setting [7] is: dose: 200.0 mg/kg/injection, schedule: Q01DX009 (ip), vehicle: saline with Tween-80.
The mark [8] stands for this setting: dose: 100.0 mg/kg/injection, schedule: Q04DX002 (ip), vehicle: saline with Tween-80.
Where [9] appears, read: dose: 200.0 mg/kg/injection, schedule: Q04DX002 (ip), vehicle: saline with Tween-80.

“And” between values parts separate entries of the source, which are not always exact repeats. Identical values can stand only once. Toxic doses and inconclusive results are not listed.

For the molecule `CCN1/C(=C/C(C)=C/c2sc3ccccc3[n+]2CC)Sc2ccccc21`, the T/C is 111 % of control (dose: 1.25 mg/kg/injection, schedule: Q01DX001 (ip), vehicle: other); 97 % of control (dose: 2.5 mg/kg/injection, schedule: Q01DX001 (ip), vehicle: other); 103 % of control (dose: 5.0 mg/kg/injection, schedule: Q01DX001 (ip), vehicle: other); 98 % of control (dose: 25.0 micrograms/kg/injection, schedule: Q01DX001 (ip), vehicle: saline); 100 % of control (dose: 25.0 micrograms/kg/injection, schedule: Q01DX009 (ip), vehicle: Klucel (hydroxypropylcellulose) (HPC)); 93 % of control (dose: 50.0 micrograms/kg/injection, schedule: Q01DX001 (ip), vehicle: saline). The T/C by setting is: (dose: 50.0 micrograms/kg/injection, schedule: Q01DX009 (ip), vehicle: Klucel (hydroxypropylcellulose) (HPC)) 101 % of control; (dose: 100.0 micrograms/kg/injection, schedule: Q01DX001 (ip), vehicle: saline) 104 % of control; (dose: 100.0 micrograms/kg/injection, schedule: Q01DX009 (ip), vehicle: Klucel (hydroxypropylcellulose) (HPC)) 108 % of control; (dose: 200.0 micrograms/kg/injection, schedule: Q01DX001 (ip), vehicle: saline) 96 % of control; (dose: 200.0 micrograms/kg/injection, schedule: Q01DX009 (ip), vehicle: Klucel (hydroxypropylcellulose) (HPC)) 104 % of control; (dose: 200.0 micrograms/kg/injection, schedule: Q01DX015 (ip), vehicle: saline) 105 % of control. For the same molecule, the T/C (dose: 400.0 micrograms/kg/injection, schedule: Q01DX009 (ip), vehicle: Klucel (hydroxypropylcellulose) (HPC)) was 97 % of control.
On to `O=C(O)CCC(=O)c1ccc(Cl)cc1`, for which the T/C reads like this: (dose: 6.25 mg/kg/injection, schedule: Q01DX009 (ip), vehicle: saline with Tween-80) 88 % of control; (dose: 12.5 mg/kg/injection, schedule: Q01DX009 (ip), vehicle: saline with Tween-80) 90 % of control; under setting [1], 97 % of control.
As to `Cc1ccc(C(=O)C=Nc2ccccc2[N+](=O)[O-])cc1`, the T/C runs as follows: (dose: 12.5 mg/kg/injection, schedule: Q04DX002 (ip), vehicle: Klucel (hydroxypropylcellulose) (HPC)) 105 % of control; (dose: 25.0 mg/kg/injection, schedule: Q04DX002 (ip), vehicle: Klucel (hydroxypropylcellulose) (HPC)) 108 % of control; (dose: 50.0 mg/kg/injection, schedule: Q04DX002 (ip), vehicle: Klucel (hydroxypropylcellulose) (HPC)) 123 % of control.
With `O=C1OCC/C1=C\NCCCN/C=C1\CCOC1=O`, the T/C is 105 % of control (dose: 100.0 mg/kg/injection, schedule: Q04DX002 (ip), vehicle: Klucel (hydroxypropylcellulose) (HPC)); 108 % of control (dose: 200.0 mg/kg/injection, schedule: Q04DX002 (ip), vehicle: Klucel (hydroxypropylcellulose) (HPC)); 94 % of control (dose: 400.0 mg/kg/injection, schedule: Q04DX002 (ip), vehicle: Klucel (hydroxypropylcellulose) (HPC)).
On to `O=C(O)c1ccc(C(=O)c2ccccc2C(=O)O)cc1`, for which the T/C reads like this: (dose: 100.0 mg/kg/injection, schedule: Q01DX009 (ip), vehicle: saline) 105 % of control; under setting [2], 102 % of control; (dose: 200.0 mg/kg/injection, schedule: Q01DX009 (ip), vehicle: saline) 106 % of control; under setting [3], 112 % of control; (dose: 400.0 mg/kg/injection, schedule: Q01DX009 (ip), vehicle: saline) 105 % of control; under setting [4], 101 % of control.
For the molecule `CCOCc1c(COc2ccc(Br)cc2)n(C)c2ccccc12`, the T/C by setting is: under setting [1], 100 % of control; under setting [5], 89 % of control and 90 % of control; under setting [6], 90 % of control; under setting [7], 99 % of control.
For the molecule `CC(C)CCCC(C)C1CCC2C3CC4C(F)(Cl)C45CC4(CCC5(C)C3CCC12C)OCCO4` (stereo unspecified), the T/C reads like this: (dose: 100.0 mg/kg/injection, schedule: Q04DX002 (ip), vehicle: other) 87 % of control; (dose: 200.0 mg/kg/injection, schedule: Q04DX002 (ip), vehicle: other) 114 % of control; (dose: 400.0 mg/kg/injection, schedule: Q04DX002 (ip), vehicle: other) 93 % of control.
For `O=C(N/N=C/c1ccc2c(c1)CCC2)c1ccccc1`, the T/C is, setting by setting: (dose: 100.0 mg/kg/injection, schedule: Q04DX003 (ip), vehicle: saline with Tween-80) 92 % of control; (dose: 200.0 mg/kg/injection, schedule: Q04DX003 (ip), vehicle: saline with Tween-80) 90 % of control; (dose: 400.0 mg/kg/injection, schedule: Q04DX003 (ip), vehicle: saline with Tween-80) 88 % of control.
`CC1COCC(C)N1CCC(=O)Nc1ccc(S(=O)(=O)c2ccc(NC(=O)CCN3C(C)COCC3C)cc2)cc1` (stereo unspecified): the T/C reads like this: (dose: 100.0 mg/kg/injection, schedule: Q01DX001 (ip), vehicle: carboxymethylcellulose (CMC)) 107 % of control; (dose: 200.0 mg/kg/injection, schedule: Q01DX001 (ip), vehicle: carboxymethylcellulose (CMC)) 104 % of control; (dose: 400.0 mg/kg/injection, schedule: Q01DX001 (ip), vehicle: carboxymethylcellulose (CMC)) 101 % of control.
As to `CCOC(=O)c1cnc(SC)nc1Oc1ccccc1`, the T/C is, setting by setting: under setting [6], 101 % of control; under setting [7], 106 % of control; (dose: 400.0 mg/kg/injection, schedule: Q01DX009 (ip), vehicle: saline with Tween-80) 98 % of control.
For the molecule `O=c1[nH]cnc2c1nnn2C1OC(CO)C(O)C1O` (stereo unspecified), the T/C was 155 % of control and 160 % of control (dose: 90.0 mg/kg/injection, schedule: Q01DX009 (ip), vehicle: saline); 163 % of control (dose: 135.0 mg/kg/injection, schedule: Q01DX009 (ip), vehicle: saline).
For `Cc1c(C)c(C)c([N+](=O)[O-])c([N+](=O)[O-])c1C`, the T/C runs as follows: under setting [5], 112 % of control; under setting [6], 93 % of control; under setting [8], 97 % of control; under setting [7], 93 % of control; under setting [9], 114 % of control.
For the molecule `Nc1c(Br)cc(Br)c(C(=O)O)c1Br`, the T/C is 103 % of control (dose: 50.0 mg/kg/injection, schedule: Q01DX009 (ip), vehicle: Klucel (hydroxypropylcellulose) (HPC)); 101 % of control (dose: 100.0 mg/kg/injection, schedule: Q01DX009 (ip), vehicle: Klucel (hydroxypropylcellulose) (HPC)); 95 % of control (dose: 200.0 mg/kg/injection, schedule: Q01DX009 (ip), vehicle: Klucel (hydroxypropylcellulose) (HPC)).
In the case of `COC(=O)c1ccccc1NC1=NCCO1`, the T/C by setting is: (dose: 50.0 mg/kg/injection, schedule: Q04DX002 (ip), vehicle: saline with Tween-80) 98 % of control; under setting [8], 104 % of control; under setting [9], 91 % of control; (dose: 400.0 mg/kg/injection, schedule: Q04DX002 (ip), vehicle: saline with Tween-80) 88 % of control.
For the molecule `[N-]=[N+]=C1C(Cl)=C(Cl)C(Cl)=C1Cl`, the T/C is 96 % of control (dose: 75.0 mg/kg/injection, schedule: Q01DX001 (ip), vehicle: other) and 102 % of control (dose: 150.0 mg/kg/injection, schedule: Q01DX001 (ip), vehicle: other).
For the molecule `COc1ccc2c(c1OC(C)=O)-c1cc(O)cc3c1C(C2)N(C(=O)CN(CCO)CCO)CC3` (stereo unspecified), the T/C is 104 % of control (dose: 25.0 mg/kg/injection, schedule: Q04DX003 (ip), vehicle: DMSO); 93 % of control (dose: 50.0 mg/kg/injection, schedule: Q04DX003 (ip), vehicle: DMSO); 89 % of control (dose: 100.0 mg/kg/injection, schedule: Q04DX003 (ip), vehicle: DMSO); 104 % of control (dose: 200.0 mg/kg/injection, schedule: Q04DX003 (ip), vehicle: DMSO); 97 % of control (dose: 400.0 mg/kg/injection, schedule: Q04DX003 (ip), vehicle: DMSO).
Regarding `O=[N+]([O-])c1ccc(S(=O)(=O)/N=C2\CCS(=O)(=O)c3ccccc32)cc1`, the T/C (dose: 100.0 mg/kg/injection, schedule: Q01DX001 (ip), vehicle: saline) was 92 % of control; the T/C (dose: 200.0 mg/kg/injection, schedule: Q01DX001 (ip), vehicle: saline) was 92 % of control; the T/C (dose: 400.0 mg/kg/injection, schedule: Q01DX001 (ip), vehicle: saline) is 93 % of control.
Take `CC(=O)C1C(=O)C(=O)OC1C` (stereo unspecified): the T/C by setting is: (dose: 100.0 mg/kg/injection, schedule: Q04DX003 (ip), vehicle: alcohol) 94 % of control; (dose: 200.0 mg/kg/injection, schedule: Q04DX003 (ip), vehicle: alcohol) 96 % of control.
In the case of `CCOC(=O)C(CC)(CCC(C)C)C(=O)OCC`, the T/C by setting is: under setting [1], 97 % of control; under setting [5], 92 % of control; under setting [6], 95 % of control; under setting [2], 95 % of control; under setting [3], 95 % of control; under setting [4], 95 % of control.
